Experimental data as given in patent US12017975B2, “Myc-Max inhibitor compound therapeutics for cancer treatment, methods and uses associated therewith” (THE UNIVERSITY OF BRITISH COLUMBIA, priority 2018, dated 2024).
Read-outs that look alike come from different tables or passages of the source.

Columns and labels:
[1] = tested on: LNCaP cells; assay: PARP cleavage (apoptosis) by Western blot in LNCaP cells; type: cell-based; conditions: TABLE 2, LNCaP cells
Procedure: After 48 hours of treatment with Myc compounds, LNCaP cells were lysed, and protein sample preparation followed by Western blotting were performed. Blots were incubated with primary antibodies against c-Myc, PARP (Sigma™ 084M4766V), PARP cleaved-Asp214 (Sigma™ SAB4500487) and β-Actin (Sigma™ A2066) overnight at 4° C., followed by appropriate peroxidase-conjugated secondary antibodies. β-actin served as an internal control. Visualization of the immunocomplexes was done by an enhanced chemiluminescence detection system (Millipore™) followed by exposure to X-ray films.
Apoptosis. Myc inhibition induces cell death by cell cycle arrest and apoptosis. Cleavage of PARP-1 by caspases is considered a hallmark of apoptosis and so we measured the ability of compounds to induce PARP cleavage after treatment.

[2] = tested on: Myc-Max transcriptional activity; assay: Cignal c-Myc luciferase reporter assay in LNCaP cells; type: cell-based; conditions: for inhibition at 25 µM / IC50 / inhibition at 5 µM / inhibition at 10 µM / inhibition at 12.5 µM: Homo sapiens, LNCaP; for inhibition at 25 µM: read-out: % Inhibition 25 μM; for IC50: assay not named, read-out: IC50
Procedure: Cell transfection was performed using TransIT-2020™ transfection reagents according to the manufacturer's instructions (Mirus™). LNCaP cells were plated at 10000 cells per well and treated for 1 day with the indicated concentration of compound. Myc reporter activity was measured using the Cignal Myc Reporter Assay Kit™ from Qiagen™ (#336841) according to the manufacturer's instructions. For the UBE2C reporter assay, 22rv1 cells were plated at 10000 cells per well in 96-well plates in RPMI media supplemented with 5% charcoal-stripped serum (CSS) and treated for 1 day with 1 μM, 10 μM and 25 μM of compound.
Compounds were subjected to experimental evaluation using the commercially available transcriptional assay Cignal c-Myc luciferase reporter assay in LNCaP cells. […] A transiently transfected Myc-driven luciferase reporter allowed the monitoring of Myc-regulated signal in LNCaP upon treatment with the in silico identified compounds.

[3] = TABLE 2, values match Myc-Max transcriptional activity

Row | Structure (SMILES) | inhibition at 25 µM ([2]; 25 μM, TABLE 3) [%] | inhibition at 5 µM ([2]; 5 μM, TABLE 3) [%] | inhibition at 10 µM ([2]; TABLE 3) [%] | other results
1 | S=C(NCc1ccncc1)Nc1cc(Cl)cc(Cl)c1 [VPC-70084] | 80 |  |  | PARP effect [1]: weak; IC50 [2, 3]: 20 µM
2 | O=C(CCN1C(=O)S/C(=C\c2ccccc2)C1=O)NCCc1c[nH]c2ccccc12 [VPC-70388] | 77 |  |  | IC50 [2, 3]: 20 µM
3 | Cc1ccc(O)c(-c2cc(C(=O)Nc3ccc(S(=O)(=O)N4CCCCC4)cc3)n[nH]2)c1 [VPC-70389] |  |  |  | inhibition at 25 µM ([2]; 25 μM, TABLE 5): 58%
4 | Cc1cccc(-c2cc(C(=O)Nc3ccc(S(=O)(=O)N4CCCCC4)cc3)n[nH]2)c1O [VPC-70390] | 97 |  |  | IC50 [2, 3]: 9 µM
5 | CS(=O)(=O)Nc1cccc(C2=NN(C(=O)CCC(=O)O)[C@H](c3ccccc3O)C2)c1 [VPC-70391] |  |  |  | inhibition at 25 µM ([2]; 25 μM, TABLE 5): 54%
6 | CCn1c(CC(=O)Nc2cccc(C)c2)nnc1SCC(=O)Nc1cc(F)ccc1F [VPC-70392] |  |  |  | inhibition at 25 µM ([2]; 25 μM, TABLE 5): 58%
7 | Cc1c(CC(=O)NCC[C@@H](c2ccc(Cl)cc2)C(C)C)c(=O)oc2c(O)c(O)ccc12 [VPC-70393] | 96 |  |  | 
8 | NS(=O)(=O)c1ccc(NC(=O)[C@H]2CC=CC[C@H]2C(=O)O)cc1 [VPC-70394] |  |  |  | inhibition at 25 µM ([2]; 25 μM, TABLE 5): 54%
9 | O=C(N[C@H](CO)Cc1ccccc1)c1cc(-n2cnnc2)ccc1Cl [VPC-70395] |  |  |  | inhibition at 25 µM ([2]; 25 μM, TABLE 5): 56%; IC50 [2, 3]: > 25 µM
10 | CCCc1cc(=O)oc2cc(C)cc(OCC(=O)N[C@@H](C)C(=O)O)c12 [VPC-70404] |  |  |  | inhibition at 25 µM ([2]; 25 μM, TABLE 5): 53%
11 | CCCc1cc(=O)oc2cc(C)cc(OCC(=O)N[C@H](C(=O)O)C(C)C)c12 [VPC-70405] |  |  |  | inhibition at 25 µM ([2]; 25 μM, TABLE 5): 54%
12 | FC(F)(F)c1cc(NC(=S)NC[C@H]2CCCO2)cc(C(F)(F)F)c1 [VPC-70437] | 87 | 24 | 105 | 
13 | S=C(NCc1cccs1)Nc1ccc(Cl)c(Cl)c1 [VPC-70458] | 86 | 42 | 104 | 
14 | Fc1ccccc1CNC(=S)Nc1cccc(C(F)(F)F)c1 [VPC-70465] | 92 | 51 |  | % Inhibition 10 μM ([2]; TABLE 3): 95%; IC50 [2, 3]: 10 µM
15 | O=C(NCc1ccccc1Cl)Nc1ccc(Cl)c(Cl)c1 [VPC-70466] | 86 | 1 | 48 | 
16 | Cc1c(Cl)cccc1NC(=S)NCc1ccc(F)cc1 [VPC-70468] | 74 | 9 | 30 | 
17 | CC[C@@H](NC(=S)Nc1cccc(C)c1)c1ccccc1 [VPC-70473] | 77 |  |  | 
18 | S=C(NCc1ccccc1)Nc1cccc(Cl)c1 [VPC-70477] | 99 | 3 | 30 | 
19 | Cc1cc(NC(=S)NCC(C)C)cc(C(F)(F)F)c1 [VPC-70478] | 91 | 26 | 65 | 
20 | Fc1ccccc1CNC(=S)Nc1cccc(C(F)(F)F)c1 [VPC-70483] |  |  |  | % Inhibition 5 μM ([2]; 5 μM, TABLE 3): 31%; % Inhibition 10 μM ([2]; TABLE 3): 38%; % Inhibition 25 μM ([2]; 25 μM, TABLE 3): 79%
21 | CS(=O)(O)=Nc1cccc(NC(=S)NCc2cccc(C(F)(F)F)c2)c1 [VPC-70487] | 79 | 34 | 42 | 
22 | C=C(C)COc1cccc(NC(=S)NCc2cccc(C(F)(F)F)c2)c1 [VPC-70489] | 99 | 38 | 86 | 

Row | Structure (SMILES) | inhibition at 25 µM ([2]; 25 μM, TABLE 3) [%] | inhibition at 5 µM ([2]; 5 μM, TABLE 3) [%] | inhibition at 10 µM ([2]; TABLE 3) [%] | other results
23 | FC(F)(F)c1cc(Br)cc(NC(=S)NCc2cccs2)c1 [VPC-70495] | 100 | 107 | 80 | IC50 [2, 3]: 5 µM
24 | S=C(NCc1cccnc1)Nc1cc(Cl)cc(Cl)c1 [VPC-70496] | 96 | 22 | 95 | 
25 | S=C(NCc1ccccc1)Nc1cc(Cl)cc(Cl)c1 [VPC-70498] | 100 | 36 | 106 | 
26 | COC(=O)c1cc(NC(=S)NCc2ccccc2)cc(Cl)c1F [VPC-70501] | 90 | 34 | 37 | 
27 | C[C@@H]1CN(Cc2ccc(CNC(=S)Nc3cccc(C(F)(F)F)c3)cc2)C[C@@H](C)O1 [VPC-70506] | 89 | 73 | 66 | 
28 | O=C(Nc1cccc(C(F)(F)F)c1)Nc1cccc(C(F)(F)F)c1 [VPC-70511] | 102 | 108 | 112 | IC50 [2, 3]: 2 µM
29 | FC(F)(F)c1cccc(NC(=S)Nc2ccc(Cl)c(C(F)(F)F)c2)c1 [VPC-70514] | 102 | 109 | 110 | 
30 | FC(F)Oc1ccc(CNC(=S)Nc2cccc(C(F)(F)F)c2)cc1 [VPC-70523] | 102 | -4 | 104 | 
31 | S=C(NCc1ccc(Cl)nc1)Nc1cccc(Cl)c1 [VPC-70524] | 102 | 22 | 4 | 
32 | NS(=O)(=O)c1cc(F)cc(NC(=S)NCc2ccccc2)c1 [VPC-70525] | 102 | 40 | 35 | 
33 | S=C(NCc1ccccc1)Nc1cccc(COc2ccccc2)c1 [VPC-70526] | 94 | 41 | 62 | 
34 | O=C(NCCc1ccccc1)C(=O)Nc1cc(C(F)(F)F)cc(C(F)(F)F)c1 [VPC-70527] | 92 | 38 | 43 | 
35 | CC(C)(C)CNC(=S)Nc1cccc(C(F)(F)F)c1 [VPC-70529] | 94 | 14 | 52 | 
36 | Cc1c(Cl)cc(NC(=S)NCc2ccccc2)cc1Cl [VPC-70530] |  |  |  | inhibition at 12.5 µM ([2]; TABLE 3): 94%
37 | NC(=O)NCc1ccc(NC(=S)NCc2ccccc2)cc1 [VPC-70531] | 81 | 0 | 27 | inhibition at 12.5 µM ([2]; TABLE 3): 47%
38 | Fc1ccc(NC(=S)NCc2ccccc2)cc1C(F)(F)F [VPC-70532] |  |  |  | inhibition at 12.5 µM ([2]; TABLE 3): 101%
39 | FC(F)(F)c1cccc(NC(=S)NCc2ccccc2C(F)(F)F)c1 [VPC-70535] |  |  |  | inhibition at 12.5 µM ([2]; TABLE 3): 95%
40 | O=C(NCCNS(=O)(=O)c1ccccc1)NNC(=O)c1cccc(C(F)(F)F)c1 [VPC-70549] |  |  |  | inhibition at 12.5 µM ([2]; TABLE 3): 75%
41 | N#Cc1ccc(NNC(=O)c2ccc(C(F)(F)F)cc2)c(C(F)(F)F)c1 [VPC-70551] |  |  |  | inhibition at 10 µM ([2]; TABLE 6): 91%; IC50 ([2]; TABLE 6 footnote): 4 µM
42 | O=C(CCNC(=O)c1cccc(C(F)(F)F)c1)NCc1ccccc1 [VPC-70554] |  |  |  | inhibition at 12.5 µM ([2]; TABLE 3): 71%
43 | CC(C)(O)c1ccc(CNC(=S)NCc2cccc(C(F)(F)F)c2)cc1 [VPC-70561] |  |  |  | inhibition at 12.5 µM ([2]; TABLE 3): 95%
44 | Cc1cc(NC(=S)NCc2ccon2)cc(C(F)(F)F)c1 [VPC-70564] |  |  |  | inhibition at 12.5 µM ([2]; TABLE 3): 73%
